The values that follow come from paper PMC12694606, “DNA-programmed bispecific peptide assemblies for delivering cytotoxic payload to cells expressing EGFR and MET receptors” (RSC Chemical Biology, 2025).

Non-standard residues stand in square brackets, D forms with d. Residues, ends and D or L forms follow the SMILES beside them. *: point of attachment. Dolaproine = CO[C@@H]([C@@H]1CCCN1)[C@@H](C)C(=O)O; Dil = CC[C@H](C)[C@H](NC)[C@@H](CC(=O)O)OC; X1 = C[C@@H](N*)[C@@H](O)c1ccccc1; NMeV = CN[C@H](C(=O)O)C(C)C

For the assay, the system named is A549 cells (EGFR+, MET+). Description: AlamarBlue cell viability assay, A549 cells. For orientation: The colour change of resazurin is a common sign of viable cells or microbes.

Description: Fig. 5 (a) Arming DNA-template strands in OS21 and OS21+3 with the toxin vcMMAE. […] Viability was normalized to PBS treatment (100% value) and ethanol treatment (0% value). Conditions: 10^4 cells per well in 100 µL medium and propagated 24 h to a confluency of ca. 85% cells, probes were incubated for 10 min in PBS, 37 °C, 5% CO2; AlamarBlue assay in full medium, 6 h.
A549 cells were incubated with the oligonucleotide assemblies for ten minutes. Cell viability was assessed six hours later using an AlamarBlue assay. […] For comparison, we assessed the viability response to treatment with MMAE at a 100 nM concentration in unconjugated form. […] Next, the cells were treated in the presence of HGF.
A549 cells were seeded into wells of a 96 well-microtiter plate (100 μL in respective medium)
at a density of 10 4 cells/well. Cells were allowed to grow for 24 h to a confluency of ca. 85%.
The medium was removed and wells carefully washed once with PBS (preheated at 37°C). The
probes were added at specific concentrations in PBS with or without HGF (100 ng/mL). The
cells were incubated at 37°C, 5% CO 2 for 10 minutes. After one careful wash with PBS, 10%
alamar blue was added, and the fluorescence signal (590 nm) was recorded after 6 hours using
Cytotoxicity of cathepsin B-cleavable vcMMAE-DNA-peptide complex with different […]

As to “HGF: hepatocyte growth factor, used at 100 ng/mL to induce MET internalization”, under “Fig. S17, 10 min in PBS, AlamarBlue 6 h”, the “cell viability, control experiments (in words)” value is recorded as “unaffected”. Regarding `CC[C@H](C)[C@@H]([C@@H](CC(=O)N1CCC[C@H]1[C@H](OC)[C@@H](C)C(=O)N[C@H](C)[C@@H](O)c1ccccc1)OC)N(C)C(=O)[C@@H](NC(=O)[C@@H](NC)C(C)C)C(C)C` [MMAE, monomethyl auristatin E] (H-[NMeV]V[Dil][Dolaproine]-X1), the cell viability (as a rule, the share of living cells, or the viability signal relative to a control) (100 nM, unconjugated form, 10 min in PBS, AlamarBlue 6 h (Fig. S17)) is given as 79%.
